Results on one substance are retold here after US20180086789A1, “PHARMACEUTICAL COMPOUND” (VALLAURIX PTE. LTD., priority 2015, published 2018).

One test deals with T1, MC1R (Homo sapiens, UniProt Q01726).
T1 construct: human melanocyte culture coded 1753 that expressed functional MC1R; endogenous in cells; host or cells: human melanocyte culture coded 1753
Nature of the test: Effects on cAMP in human melanocyte culture 1753 (radioimmunoassay). The test is classed as cell-based. How it is done:
The compound with formula structure Ac-Nle-Glu-His-D-Phe-homoArg-Trp-NH2 of the invention was tested using human melanocyte culture coded 1753 that expressed functional MC1R. The melanocytes were plated at a density of 0.3*10^6 cells/well. After 48 hours, the melanocytes were treated with different compound concentrations (10^−12 to 10^−7 M) for 1 hour. A control without compound was included in the test. […] The reaction was stopped by addition of 50 μl 1 N HCl and the supernatant in each well was used to measure cAMP using a radioimmunoassay as described by Suzuki 1996 (Suzuki I, Cone R D, Im S, Nordlund J J, Abdel-Malek Z: “Binding of melanotropic hormones to the MC1 receptor on human melanocytes stimulates proliferation and melanogenesis”. Endocrinology 137: 1627-1633, 1996). Duplicate samples from each well were assayed with triplicate wells included in each group. The mean of 6 cAMP measurements per group was expressed as % of the control group. Statistical analysis was carried out using ANOVA followed by Newman Kuels test. In some cases, unpaired t-test was used.

A further test deals with tyrosinase. The experiment in a line: Effects on tyrosinase activity in human melanocyte culture 1750 (3H-labeled tyrosine). The test is classed as cell-based. The method, then: The compound with formula structure Ac-Nle-Glu-His-D-Phe-homoArg-Trp-NH2 of the invention was tested using human melanocyte culture coded 1750 that expressed functional MC1R. The melanocytes were plated at a density of 0.3*10^6 cells onto 60 mm dishes (triplicate dishes/group). After 48 hours, the melanocytes were treated every other day for a total of six days with different doses (10^−12 M to 10^−7 M) of the compound. A control without compound was included in the test. […] On treatment day 5, ^3H-labeled tyrosine, the substrate for tyrosinase, was added and 24 hours later, the supernatant was saved to be assayed for tyrosinase activity as described by Suzuki et al (see example 2). Duplicate samples from each were assayed, with triplicate dishes included in each group. Cell number in each dish was counted, and tyrosinase activity was expressed as dpm/10^6 cells and as % of the control. Statistical analysis was carried out using ANOVA followed by Newman Kuels test.
It will be understood that this tyrosinase activation test relates to a late event after MC1R activation, compared to the earlier secondary messenger effect of the above cAMP test. As pointed out above, activity of tyrosinase requires days of treatment.

Setting [1] is: concentrations from 10^−10 M to 10^−7M.

Non-standard residues stand in square brackets, D forms with d. hArg = N=C(N)NCCCC[C@H](N)C(=O)O; Nle = CCCC[C@H](N)C(=O)O

T1 sequence (Q01726 whole entry): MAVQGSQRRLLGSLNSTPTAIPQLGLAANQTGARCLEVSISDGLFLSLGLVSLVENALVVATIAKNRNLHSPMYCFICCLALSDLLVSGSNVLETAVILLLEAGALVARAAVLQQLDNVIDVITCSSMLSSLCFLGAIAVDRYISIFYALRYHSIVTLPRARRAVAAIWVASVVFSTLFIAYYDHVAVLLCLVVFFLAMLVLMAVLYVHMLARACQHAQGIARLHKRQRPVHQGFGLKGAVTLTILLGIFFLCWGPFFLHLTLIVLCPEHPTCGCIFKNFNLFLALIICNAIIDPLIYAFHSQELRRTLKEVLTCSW

Turning to “Ac-[Nle]EH[dF][hArg]W-NH2 [compound of the invention]”, the “cAMP, highest efficacy, expressed as % of the control group” value on MC1R (10^−7M, 1 hour treatment, human melanocyte culture 1753 expressing functional MC1R) was found to be 216%. Also, the “cAMP results statistically different compared to the control (p<0.05)” value on MC1R (setting [1]) was “statistically different compared to the control”. In the test with tyrosinase (10^−8 M, six days of treatment, human melanocyte culture 1750 expressing functional MC1R), the “tyrosinase activity, highest efficacy, % of the control” value came to 227%. For the same substance, the “tyrosinase activity, efficacy, % of the control” value in the test with tyrosinase (10^−9 M, six days of treatment, human melanocyte culture 1750 expressing functional MC1R) worked out at 198%. Also, the “tyrosinase activity results statistically different compared to the control (p<0.05)” value in the test on tyrosinase (setting [1]) is reported as “statistically different compared to the control”.
